For assay [1], the target named is T1, Retinoic acid receptor RXR-gamma (Homo sapiens, UniProt P48443).
T1 sequence (P48443 whole entry): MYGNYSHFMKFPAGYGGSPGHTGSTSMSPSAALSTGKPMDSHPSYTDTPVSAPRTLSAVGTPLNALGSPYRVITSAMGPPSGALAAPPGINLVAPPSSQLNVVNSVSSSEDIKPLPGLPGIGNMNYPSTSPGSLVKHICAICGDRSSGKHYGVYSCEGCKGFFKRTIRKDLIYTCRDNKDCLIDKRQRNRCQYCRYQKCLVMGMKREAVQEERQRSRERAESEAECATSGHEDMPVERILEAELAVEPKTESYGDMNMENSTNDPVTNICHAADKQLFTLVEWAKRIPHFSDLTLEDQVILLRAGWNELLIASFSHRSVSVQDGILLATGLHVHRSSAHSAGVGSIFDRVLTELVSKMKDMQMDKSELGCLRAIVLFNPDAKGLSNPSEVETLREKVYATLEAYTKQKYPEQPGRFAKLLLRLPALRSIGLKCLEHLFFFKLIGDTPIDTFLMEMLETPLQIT
The assay can be described thus: Binding affinity against RXR gamma receptor using [3H]9-cis-RA as radioligand in CV-1 cells. Format: cell-based, Cercopithecidae.

Assay [2] addresses T2, Retinoic acid receptor RXR-alpha (Homo sapiens, UniProt P19793).
T2 sequence (P19793 whole entry): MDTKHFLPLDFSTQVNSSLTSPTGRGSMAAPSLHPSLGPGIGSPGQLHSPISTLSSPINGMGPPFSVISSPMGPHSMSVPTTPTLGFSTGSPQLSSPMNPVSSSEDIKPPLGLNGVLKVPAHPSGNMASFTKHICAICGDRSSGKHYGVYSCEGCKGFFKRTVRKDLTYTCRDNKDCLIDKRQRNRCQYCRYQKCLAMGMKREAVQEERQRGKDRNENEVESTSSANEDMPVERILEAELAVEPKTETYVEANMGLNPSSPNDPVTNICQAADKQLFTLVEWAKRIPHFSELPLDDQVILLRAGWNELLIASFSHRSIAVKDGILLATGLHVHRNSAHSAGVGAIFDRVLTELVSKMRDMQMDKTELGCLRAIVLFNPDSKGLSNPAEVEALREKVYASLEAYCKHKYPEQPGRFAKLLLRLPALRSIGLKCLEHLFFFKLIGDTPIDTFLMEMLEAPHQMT
As to the kind of experiment: In vitro antagonist activity against RXR alpha in CV-1 cells. The class given is functional, cell-based, Cercopithecidae.

Assay [3] deals with T2, Retinoic acid receptor RXR-alpha. As to the kind of experiment: biochemical.
Description: Binding affinity against RXR alpha receptor using [3H]9-cis-RA as radioligand in CV-1 cells
Assay [4] shares this target. As to the kind of experiment: In vitro agonistic activity against RXR alpha in CV-1 cells. Format: functional, cell-based, Cercopithecidae.

For the molecule `C/C(=C/C=C/C(C)=C/C(=O)O)c1cc(-c2ccccc2F)cc(C(C)C)c1OCC(F)F`, the Ki in assay [1] was found to be 10.9 nM; in assay [3] it was 2.3 nM. In assay [2], this molecule had an IC50 of 3.1 nM.

Consider `CCOc1c(\C(C)=C/C=C/C(C)=C/C(=O)O)cc(C(F)(F)C(F)(F)F)cc1C(C)C`, for which the Ki is 7.7 nM in assay [1] and 6.3 nM in assay [3]. Further, it took 92 nM to reach a half-maximal effect in assay [4] (EC50). For the same molecule, the midpoint of inhibition in assay [2], the IC50, lay at 5.3 nM.

The values are drawn from ChEMBL document CHEMBL1136440, “Design and synthesis of novel RXR-selective modulators with improved pharmacological profile” (Bioorg Med Chem Lett, 2003).
